We go through 4 compounds from publication PMC10290954 (Nature Metabolism, 2023).

One data set relates to human islets. Nature of the data set: Human islets, glucagon secretion with tirzepatide at 2.7 or 10 mM glucose ± alanine (Fig. 3d). It is filed as cell-based. The procedure:
Human islets were obtained from both the Alberta Diabetes Institute and the Integrated Islet Distribution Program. All islets were obtained from consenting donors. Details for the general perifusion protocol have been previously described[21] and are similar to the mouse perifusion protocol. […] Each set of human islets consisted of n = 3 for each condition. These were averaged to generate a single data point (Fig. 2c). Insulin values were measured with a Lumit insulin immunoassay (Promega) using an EnVision plate reader (PerkinElmer). For the glucagon secretion experiments (Fig. 3), the average glucagon values were calculated during control (minutes 35–45) and stimulated (minutes 55–65) conditions. All peptides were used at 30 nM concentrations based on previous work[16]. Amino acids were used at concentrations of 3 mM based on previous work[11]. Glucagon was measured with a Lumit Glucagon Immunoassay Kit (cat. no. CS3037A02; Promega) using an EnVision plate reader (PerkinElmer). Somatostatin was measured with an ELISA assay (cat. no. FEK-060-14; Phoenix Pharmaceuticals). All data are expressed as the measured concentration relative to both flow rate and islet number (insulin, ng ml^–1 × (1/200 µl ml^–1) × (1/75 islets); glucagon, pM × (1/200 µl ml^–1) × (1/75 islets); somatostatin, pg ml^–1 × (1/200 µl ml^–1) × (1/75 islets))[49]. […]

In data set [1] the target is T1, Mouse GLP-1R (Mus musculus, UniProt O35659).
T1 construct: expressed in transfected cells; host or cells: HEK293T, transient (Lipofectamine 2000)
T1 sequence (O35659 22-463): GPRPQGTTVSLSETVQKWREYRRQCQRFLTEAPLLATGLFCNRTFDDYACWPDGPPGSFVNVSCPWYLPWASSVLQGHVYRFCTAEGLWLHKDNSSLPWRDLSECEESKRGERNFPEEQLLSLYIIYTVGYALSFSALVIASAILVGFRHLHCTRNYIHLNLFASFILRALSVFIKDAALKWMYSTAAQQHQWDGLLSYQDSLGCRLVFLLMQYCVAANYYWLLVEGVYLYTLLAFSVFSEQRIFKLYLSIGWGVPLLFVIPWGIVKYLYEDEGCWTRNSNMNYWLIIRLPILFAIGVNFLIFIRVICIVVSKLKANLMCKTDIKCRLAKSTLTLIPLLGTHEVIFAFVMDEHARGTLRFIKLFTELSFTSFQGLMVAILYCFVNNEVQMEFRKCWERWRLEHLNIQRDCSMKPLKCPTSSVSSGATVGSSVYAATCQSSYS
Briefly: Gs recruitment (ligand-induced BRET), mouse GLP-1R. It is filed as cell-based. The following applies: mean (SEM, n). The procedure: (§1) BRET measurements were taken every 1 min using a PHERAstar FS multi-mode microplate reader. Baseline measurements were taken after an initial 5 min incubation with coelenterazine-h or NanoGlo-containing HBSS, after which cells were treated with either a vehicle (PBS) or the respective ligands. Ligand-specific ratiometric BRET signals were normalized to the vehicle, producing the ‘ligand-induced BRET ratio’[46], followed by additional normalization to well-specific baseline readings. Ligand-induced measurements on the temporal scale are represented as the subsequent measurement after time point zero. Positive or negative incremental area under the curves (+iAUC, –iAUC) were calculated where noted. Concentration–response curves were generated by three-parameter logistic fitting in Prism 9.0.

For data set [2], the target named is T1, Mouse GLP-1R. Nature of the data set: cAMP generation (Glosensor), mouse GLP-1R. It is filed as cell-based. On the procedure: (§2) Methods for these assays have been previously described. In brief, for GTPγs binding, the potency of ligands to stimulate receptor-dependent elevation of the GTPγS-bound Gαs subunit was determined using membrane preparations from low-receptor-density receptor clonal cell lines. Reactions were incubated for 30 min at room temperature in white, clear-bottom microtiter plates, and per cent of the maximal response was calculated using control wells as a reference. Relative EC50 values were derived by nonlinear regression analysis using the per cent response versus the concentration of ligand and fitted to a four-parameter logistic equation using GraphPad Prism 7 software. For cAMP assays, kinetic cAMP assays were performed in low-density receptor cell clones transfected with the Glosensor 22 F vector (Promega). Cells were equilibrated for 5–20 min and then 20 μl of 10× ligand was added and a luminescence time course was collected. Ligand (10×) was titrated by manual serial dilution in DMSO followed by step-down into assay buffer.

For data set [3] the following is noted: in vivo; cited from earlier work. The text has this: Tirzepatide is an agonist for both incretin receptors, engineered from the human GIP (hGIP) peptide sequence. It has an average half-life of approximately 5 days, enabling once-weekly dosing.
The target in data set [4] is T2, mouse GIP receptor (Mus musculus, UniProt Q0P543).
T2 sequence (Q0P543 19-460): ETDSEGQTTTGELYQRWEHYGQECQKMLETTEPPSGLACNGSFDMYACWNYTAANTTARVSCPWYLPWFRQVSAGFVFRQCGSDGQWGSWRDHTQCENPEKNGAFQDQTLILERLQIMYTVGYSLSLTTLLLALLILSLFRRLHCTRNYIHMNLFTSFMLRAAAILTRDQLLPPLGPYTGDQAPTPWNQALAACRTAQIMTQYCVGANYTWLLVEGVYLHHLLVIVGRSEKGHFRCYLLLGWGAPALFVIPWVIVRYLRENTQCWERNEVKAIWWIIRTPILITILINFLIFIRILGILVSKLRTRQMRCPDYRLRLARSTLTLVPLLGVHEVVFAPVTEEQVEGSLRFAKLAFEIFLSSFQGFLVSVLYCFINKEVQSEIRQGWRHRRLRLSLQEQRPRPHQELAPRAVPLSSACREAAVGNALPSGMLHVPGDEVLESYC
Briefly: Gs recruitment (ligand-induced BRET), mouse GIPR. It is filed as cell-based. Also noted: expressed in transfected cells. The following applies: HEK-293T, read-out: Gs recruitment Emax. On the procedure: as §1
In general terms: In BRET a luciferase serves as donor, and the signal depends on an acceptor being close.

Data set [5] has as its target T2, mouse GIP receptor. Nature of the data set: cAMP generation (Glosensor), mouse GIPR. It is filed as cell-based. The following applies: mouse GIPR, low-density receptor clones, Glosensor; mean (s.e.m., n); read-out: cAMP Emax. More on the design: expressed in transfected cells; host or cells: low-receptor-density clonal cell lines. On the procedure:
as §2

Data set [6] has as its target T2, mouse GIP receptor. Nature of the data set: [35S]GTPγS binding, mouse GIPR. It is filed as biochemical. More on the design: expressed in transfected cells; host or cells: low-receptor-density clonal cell lines. On the procedure: as §2, with “collected.” for “collected. Ligand (10×) was titrated by manual serial dilution in DMSO followed by step-down into assay buffer.”

The target in data set [7] is mouse GLP-1 receptor (mouse) (UniProt O35659). Briefly: other; competition with radioligand, header printed as [125I]GIP(1-42)OH.

“And” between values parts separate entries of the source, which are not always exact repeats. Equal entries are not always repeated.

On to `C[C@H](N)C(=O)O` [Alanine], for which, in the data set with human islets, the “iAUC values (glucagon secretion)” value was 42.82 and 37.07 and 49.41 and 40.38 and 34.9 and 39.11.
For the compound `CC[C@H](C)[C@H](NC(=O)[C@H](CC(C)C)NC(=O)[C@H](Cc1c[nH]c2ccccc12)NC(=O)[C@H](CCC(N)=O)NC(=O)[C@@H](NC(=O)[C@H](Cc1ccccc1)NC(=O)[C@H](C)NC(=O)[C@H](CCCCNC(=O)COCCOCCNC(=O)COCCOCCNC(=O)CC[C@H](NC(=O)CCCCCCCCCCCCCCCCCCC(=O)O)C(=O)O)NC(=O)[C@H](CCC(N)=O)NC(=O)[C@H](C)NC(=O)[C@@H](NC(=O)[C@H](CCCCN)NC(=O)[C@H](CC(=O)O)NC(=O)[C@H](CC(C)C)NC(=O)C(C)(C)NC(=O)[C@@H](NC(=O)[C@H](CO)NC(=O)[C@H](Cc1ccc(O)cc1)NC(=O)[C@H](CC(=O)O)NC(=O)[C@H](CO)NC(=O)[C@@H](NC(=O)[C@H](Cc1ccccc1)NC(=O)[C@@H](NC(=O)CNC(=O)[C@H](CCC(=O)O)NC(=O)C(C)(C)NC(=O)[C@@H](N)Cc1ccc(O)cc1)[C@@H](C)O)[C@@H](C)O)[C@@H](C)CC)[C@@H](C)CC)C(C)C)C(=O)N[C@@H](C)C(=O)NCC(=O)NCC(=O)N1CCC[C@H]1C(=O)N[C@@H](CO)C(=O)N[C@@H](CO)C(=O)NCC(=O)N[C@@H](C)C(=O)N1CCC[C@H]1C(=O)N1CCC[C@H]1C(=O)N1CCC[C@H]1C(=O)N[C@@H](CO)C(N)=O` [TZP, tirzepatide], the Emax (as a rule, the size of the effect at its maximum, as opposed to the concentration needed) turned out to be 35.6% at Mouse GLP-1R [1]; 95% on Mouse GLP-1R [2] (HEK293, mouse GLP-1R HEK-293 cells, n = 6, read-out: Emax, mean of column (T-test Emax, cAMP)); 95% at Mouse GLP-1R [2] (HEK293, read-out: Arthmetic Mean Emax); 84% on Mouse GLP-1R [2] (Mouse GLP-1R, mean (n), read-out: cAMP EMAX); 72.6% at mouse GIP receptor [4] (mouse GIPR, HEK293T BRET, mean (s.e.m., n)); 103% on mouse GIP receptor [5]. For the same compound, the Half-life result in data set [3] is “approximately 5 days”.
As for `CC[C@H](C)[C@H](NC(=O)[C@H](CO)NC(=O)[C@H](Cc1ccc(O)cc1)NC(=O)[C@H](CC(=O)O)NC(=O)[C@H](CO)NC(=O)[C@@H](NC(=O)[C@H](Cc1ccccc1)NC(=O)[C@@H](NC(=O)CNC(=O)[C@H](CCC(=O)O)NC(=O)[C@H](C)NC(=O)[C@@H](N)Cc1ccc(O)cc1)[C@@H](C)O)[C@@H](C)CC)C(=O)N[C@@H](C)C(=O)N[C@@H](CCSC)C(=O)N[C@@H](CC(=O)O)C(=O)N[C@@H](CCCCN)C(=O)N[C@H](C(=O)N[C@@H](CCCNC(=N)N)C(=O)N[C@@H](CCC(N)=O)C(=O)N[C@@H](CCC(N)=O)C(=O)N[C@@H](CC(=O)O)C(=O)N[C@@H](Cc1ccccc1)C(=O)N[C@H](C(=O)N[C@@H](CC(N)=O)C(=O)N[C@@H](Cc1c[nH]c2ccccc12)C(=O)N[C@@H](CC(C)C)C(=O)N[C@@H](CC(C)C)C(=O)N[C@@H](C)C(=O)N[C@@H](CCC(N)=O)C(=O)N[C@@H](CCCNC(=N)N)C(=O)NCC(=O)N[C@@H](CCCCN)C(=O)N[C@@H](CCCCN)C(=O)N[C@@H](CO)C(=O)N[C@@H](CC(=O)O)C(=O)N[C@@H](Cc1c[nH]c2ccccc12)C(=O)N[C@@H](CCCCN)C(=O)N[C@@H](Cc1c[nH]cn1)C(=O)N[C@@H](CC(N)=O)C(=O)N[C@H](C(=O)N[C@H](C(=O)N[C@@H](CCC(N)=O)C(N)=O)[C@@H](C)O)[C@@H](C)CC)C(C)C)[C@@H](C)CC` [mGIP], the Emax at mouse GIP receptor [4] came to 100%; on mouse GIP receptor [6] (mGIPR GTPgS, run of 2019-06-25) it was 98.5%; on mouse GIP receptor [6] (mGIPR GTPgS, run of 2022-05-11) it was 98.7%; at mouse GIP receptor [6] (mGIPR GTPgS, run of 2022-05-12), 98%; at mouse GIP receptor [6] (mGIPR GTPgS, run of 2022-06-16) it was 101%; on mouse GIP receptor [6] (mGIPR GTPgS, run of 2022-06-21), 102%. Further, the Emax at mouse GIP receptor [6] (read-out: [35S]GTPγS binding Emax, mouse GIPR, membranes, 30 min room temperature, mean (s.e.m., n)) was found to be 98.9%; at mouse GIP receptor [5], 103%.
In the case of TZP, the Ki (usually a dissociation constant, usually derived from enzyme kinetics or from competition with a known ligand) in data set [7] was 0.387 nM.
